# Literature values in patent US20100056645A1, “Chromatographic Media and Chromatographic Equipment Storage Solutions and Use Thereof” (priority 2007, published 2010).
# System: gram positive bacteria
structure (smiles),measurement,value
OCc1ccccc1 [benzyl alcohol],pH of optimal bactericidal activity,< 5.0
